What was measured:
Assay type in all cases: cell-based, human
[1] = tested on: hepatic markers (ALB, AFP, HNF4α, SLC10A1, ASGR1); assay: Hepatic marker expression (real-time qPCR, immunofluorescence); details: 2 μg/mL, 24 hours
Description: C. Human iPSC-derived hepatocytes were treated with 2 μg/mL of DL-1 for 24 hours. (A) mRNA level of hepatic markers (ALB, AFP, HNF4α, SLC10A1, ASGR1) were determined via real-time qPCR. (B) Cells were fixed and immunofluorescence was performed to determine HNF4 and ALB level. […] Data are shown as mean SEM of […] (n=4).
For hepatic marker expression analysis, human iPSC-derived hepatocytes (Day 20) were treated with 2 μg/mL of DL-1 for 24 hours. Cells were fixed in 4% paraformaldehyde (PFA) and penetrated with 0.1% Triton-X-100. Cells were incubated with primary antibodies (ALB, 1:1000, Dako; HNF4-a, 1:1000, Santa Cruz) overnight at 4 degrees and then switched to secondary antibodies (Alexa Flour 488 goat anti-rabbit, 1:1000, Invitrogen; Alexa Flour 594 rabbit anti-mouse, 1:2000, Invitrogen). Images were taken using Bio-Rad Zoe™ Fluorescent Cell Imager (Bio-Rad). For intracellular APOB localization, iPSC-heps were treated with 0, 3, 12, 48 μg/mL of DL-9 for 24 hours, and cells were fixed in 4% PFA followed by 0.1% Triton-X-100 penetration. […] Integrated fluorescent intensity was normalized by total cell counts, which is determined by DAPI staining.
Human iPSC-derived hepatocytes (Day 20) were treated with 2 μg/mL of DL-1 for 24 hours. […] Quantitative real-time PCR was performed on a BioRad CFX384 real-time PCR machine.

Albumin = assay: Secreted albumin ELISA in iPSC-derived hepatocytes
Description: D. Human iPSC-derived hepatocytes were treated with DL-1 with concentrations ranging from 0.0325 to 12 or 48 μg/mL for 24 hours. Pre-drug and Post-drug medium were collected for analysis. Albumin and APOB levels were determined via ELISA assay. All secreted proteins were compared to non-treated cells. […] Data are shown as mean±SEM of four replicates (n=4); * p<0.01.
(§1) E. Human iPSC-derived hepatocytes were treated with 2 μg/mL of DL-1 from 8 to 48 hours. Albumin, APOPA, and APOB level in the culture medium were determined via ELISA. All secreted proteins were compared to non-treated cells. In FIG. 5, accumulated APOB in the medium from different time-point was measured and normalized to albumin level. In FIG. 6, APOA, APOB, and albumin in the medium at the indicated times were compared to control. […] Data are shown as mean±SEM of four replicates (n=4); *p<0.05, **p<0.01.
(§2) Human APOB level was determined via a commercial sandwich ELISA (3715-1H-6; Mabtech), and the signal was detected using the HRP-TMB system. The concentration of APOB was determined using a standard curve with four parameters logistic regression model. Human APOA level was determined via a commercial sandwich ELISA (3710-1H-6; Mabtech) following manufacture instruction. Human albumin levels in cell culture supernatants were measured by commercial ELISA (E88-129; Bethyl Laboratories) following manufactural instructions.

APOA = assay: Secreted APOA ELISA in iPSC-derived hepatocytes; details: 2 μg/mL, 8 to 48 hours
Description: as §1, §2

Hepatic neutral lipid = assay: Neutral lipid staining (BODIPY 493/503) in iPSC-derived hepatocytes; details: 72 hours; DL-1 2 μg/mL, CP-346086 20 nM
Description: H. Human iPSC derived hepatocytes were treated with DL-1 (2 μg/mL) and MTTP inhibitor CP-346086 (20 nM) for 72 hours. […] (A) Hepatic neutral lipid was determined by staining with 2 μM of BODIPYTM 493/503 for 15 mins and fixed with 4% PFA for microscopy. Nuclei were stained blue by DAPI. Scale bar=100 μm. […] Data are shown as mean±SEM of ten replicates (n=10); ***p<0.001.
K3 iPSC-derived hepatocytes (Day 20) were treated with or without 2 μg/mL of DL-1 or 20 nM of CP-346086 (Sigma) for 72 hours with daily medium change. At the time-point of interest, cells were treated with 2 μM of BODIPY® 493/503 staining solution (ThermoFisher) and 5 μg/mL of Hoechst 33342 (ThermoFisher) in PBS at 37 degrees for 15 minutes. Cells were washed with sterile PBS three times and then fixed with 4% PFA. Fluorescence images were taken using Bio-rad Zoeυ Fluorescent Cell Imager (Bio-Rad) and KEYENCE BZ-X800E Fluorescence Microscope (KEYENCE). Integrated fluorescent intensity was normalized by total cell counts, which is determined by DAPI staining.

Question: For `Sc1nc(S)nc(Nc2ccc(Nc3ccccc3)cc2)n1` (racemic) [DL-1, 6-{[4-(phenylamino)phenyl]amino}-1,3,5-triazine-2,4-dithiol], which “hepatic character (hepatic marker mRNA, HNF4 and ALB immunofluorescence)” value [1] is on record?
Answer: The value was “no impact on hepatic characters”.

Question: What about the “albumin level in culture medium, time course” value (Albumin; 2 μg/mL, 8 to 48 hours) of the same compound?
Answer: The value was “without affecting albumin and APOA level”.

Question: And the “albumin level, dose-response” value (Albumin; 0.0325 to 12 or 48 μg/mL, 24 hours)?
Answer: The value was “without affecting albumin”.

Question: What about the “APOA level in culture medium, time course” value (APOA) of the same compound?
Answer: The value was “without affecting albumin and APOA level”.

Question: And the “hepatic lipid accumulation (neutral lipid level)” value (Hepatic neutral lipid)?
Answer: The value was “no impact on hepatic lipid accumulation”.
